# Assay results reported in paper PMC4907642 (Journal of medicinal chemistry, 2015).
# Molecular target: EML4-ALK G1202R transformed Ba/F3 cells (Homo sapiens, UniProt Q9HC35+Q9UM73, G1202R)
# Settings: 1 µM, result in words
# EML4-ALK G1202R transformed Ba/F3 cells, sequence (Q9UM73 1058-1620 G1202R limits assumed, one chain of several): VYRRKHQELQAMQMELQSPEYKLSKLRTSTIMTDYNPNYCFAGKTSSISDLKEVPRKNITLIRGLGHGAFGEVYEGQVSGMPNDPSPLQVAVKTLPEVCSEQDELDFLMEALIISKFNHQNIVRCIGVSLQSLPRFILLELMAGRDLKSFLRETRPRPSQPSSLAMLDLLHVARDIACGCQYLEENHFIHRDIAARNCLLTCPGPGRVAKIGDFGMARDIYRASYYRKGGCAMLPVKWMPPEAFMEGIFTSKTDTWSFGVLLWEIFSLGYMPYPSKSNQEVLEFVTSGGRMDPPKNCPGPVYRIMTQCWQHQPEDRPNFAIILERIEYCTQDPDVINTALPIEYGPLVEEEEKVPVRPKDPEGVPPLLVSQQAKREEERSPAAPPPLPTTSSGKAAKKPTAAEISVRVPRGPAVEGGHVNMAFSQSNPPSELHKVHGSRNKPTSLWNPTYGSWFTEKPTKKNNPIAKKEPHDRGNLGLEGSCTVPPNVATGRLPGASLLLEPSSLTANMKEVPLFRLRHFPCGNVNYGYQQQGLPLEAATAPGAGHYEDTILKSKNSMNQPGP
row,Compound,single point inhibition of the G1202R mutant
1,"CCc1cc2c(cc1[C@H](O)CO)C(C)(C)c1[nH]c3cc(C#N)ccc3c1C2=O [Compound 23, (S)-8-(1,2-dihydroxyethyl)-9-ethyl-6,6-dimethyl-11-oxo-6,11-dihydro-5H-benzo[b]carbazole-3-carbonitrile]",much less potent
2,"CCc1cc2c(cc1-c1ccoc1)C(C)(C)c1[nH]c3cc(C#N)ccc3c1C2=O [Compound 11, 9-ethyl-8-(furan-3-yl)-6,6-dimethyl-11-oxo-6,11-dihydro-5H-benzo[b]carbazole-3-carbonitrile]",much less inhibitory activity
3,"CCc1cc2c(cc1-c1cnn(C(C)(C)C(=O)N(C)C)c1)C(C)(C)c1[nH]c3cc(C#N)ccc3c1C2=O [Compound 35, 2-(4-(3-cyano-9-ethyl-6,6-dimethyl-11-oxo-6,11-dihydro-5H-benzo[b]carbazol-8-yl)-1H-pyrazol-1-yl)-N,N,2-trime-thylpropanamide]",quite potent
4,"CCc1cc2c(cc1-c1cc[nH]n1)C(C)(C)c1[nH]c3cc(C#N)ccc3c1C2=O [Compound 9, 9-ethyl-6,6-dimethyl-11-oxo-8-(1H-pyrazol-3-yl)-6,11-dihydro-5H-benzo[b]carbazole-3-carbonitrile]",quite potent
5,"CCc1cc2c(cc1-c1cnn(C(=O)N(C)C)c1)C(C)(C)c1[nH]c3cc(C#N)ccc3c1C2=O [Compound 36, 4-(3-cyano-9-ethyl-6,6-dimethyl-11-oxo-6,11-dihydro-5H-benzo[b]carbazol-8-yl)-N,N-dimethyl-1H-pyrazole-1-carboxamide]",quite potent
6,"CCc1cc2c(cc1-c1cnn(C)c1)C(C)(C)c1[nH]c3cc(C#N)ccc3c1C2=O [Compound 7, 9-ethyl-6,6-dimethyl-8-(1-methyl-1H-pyrazol-4-yl)-11-oxo-6,11-dihydro-5H-benzo[b]carbazole-3-carbonitrile]",quite potent
7,"CCc1cc2c(cc1-c1cn[nH]c1)C(C)(C)c1[nH]c3cc(C#N)ccc3c1C2=O [Compound 8, 9-ethyl-6,6-dimethyl-11-oxo-8-(1H-pyrazol-4-yl)-6,11-dihydro-5H-benzo[b]carbazole-3-carbonitrile]",quite potent
8,"CCc1cc2c(cc1-c1cccs1)C(C)(C)c1[nH]c3cc(C#N)ccc3c1C2=O [Compound 12, 9-ethyl-6,6-dimethyl-11-oxo-8-(thiophen-2-yl)-6,11-dihydro-5H-benzo[b]carbazole-3-carbonitrile]",much less inhibitory activity

# Further lines, results first:
row,single point inhibition of the G1202R mutant,Compound
1,much less potent,"CCc1cc2c(cc1[C@@H](O)CO)C(C)(C)c1[nH]c3cc(C#N)ccc3c1C2=O [Compound 22, (R)-8-(1,2-dihydroxyethyl)-9-ethyl-6,6-dimethyl-11-oxo-6,11-dihydro-5H-benzo[b]carbazole-3-carbonitrile]"
2,no activity,"CCc1cc2c(cc1/C=C/CN1CCOCC1)C(C)(C)c1[nH]c3cc(C#N)ccc3c1C2=O [Compound 25, (E)-9-ethyl-6,6-dimethyl-8-(3-morpholinoprop-1-en-1-yl)-11-oxo-6,11-dihydro-5H-benzo[b]carbazole-3-carbonitrile]"
3,potent inhibition,"CCc1cc2c(cc1N1CCC(N(C)C)CC1)C(C)(C)c1[nH]c3cc(C#N)ccc3c1C2=O [Compound 17, 8-(4-(dimethylamino)piperidin-1-yl)-9-ethyl-6,6-dimethyl-11-oxo-6,11-dihydro-5H-benzo[b]carbazole-3-carbonitrile]"
4,potent inhibition,"CCc1cc2c(cc1N1CCN(C)CC1)C(C)(C)c1[nH]c3cc(C#N)ccc3c1C2=O [Compound 19, 9-ethyl-6,6-dimethyl-8-(4-methylpiperazin-1-yl)-11-oxo-6,11-dihydro-5H-benzo[b]carbazole-3-carbonitrile]"
5,much less potent,"CCc1cc2c(cc1C(=O)O)C(C)(C)c1[nH]c3cc(C#N)ccc3c1C2=O [Compound 24, 3-cyano-9-ethyl-6,6-dimethyl-11-oxo-6,11-dihydro-5H-benzo[b]carbazole-8-carboxylic acid]"
6,much less potent,"CCc1cc2c(cc1C#N)C(C)(C)c1[nH]c3cc(C#N)ccc3c1C2=O [Compound 21, 9-ethyl-6,6-dimethyl-11-oxo-6,11-dihydro-5H-benzo[b]carbazole-3,8-dicarbonitrile]"

# Test system: panel of 456 kinases
# Settings: 1 µM
row,Compound,KINOMEscan interactions mapped
1,"CCc1cc2c(cc1-c1cnn(CCCN(C)C)c1)C(C)(C)c1[nH]c3cc(C#N)ccc3c1C2=O [Compound 32, 8-(1-(3-(dimethylamino)propyl)-1H-pyrazol-4-yl)-9-ethyl-6,6-dimethyl-11-oxo-6,11-dihydro-5H-benzo[b]carbazole-3-carbonitrile]",39
